The target in experiment [1] is T1, S100A4 (Homo sapiens, UniProt P26447).
T1 construct: We used full-length S100A4 for this analysis; made in house; host or cells: Escherichia coli BL21(DE3)
Kind of experiment: Competition of M32/M16^N with M200 for S100A4 (turbidity). To be noted: 250 μM peptide, 5 μM M200, 10 μM S100A4, Ca^2+. The class given is biochemical. The protocol: Fig. 9 Dissociation of M200 filaments by S100A4. (a) Initially, M200 was added (i) from a concentrated stock in 0.5 M NaCl to give a final concentration of 5 μM M200 (with respect to the polypeptide chain) in 100 mM NaCl, 10 mM Hepes, and 0.1 mM Ca^2+ at pH 7.5 and 20 °C. A biphasic rise in turbidity was recorded for 200 s (continuous line). Then 10 μM S100A4 (with respect to monomer concentration) was added (ii), followed by 0.2 mM EGTA (iii) and 1 mM Ca^2+ (iv). […] (b) M200 was diluted (i) into 100 mM NaCl to form filaments as in (a), then 5 μM S100A4 was added (ii), causing a 54% drop in turbidity. A further 5 μM S100A4 (iii) caused turbidity to fall to almost zero. (c) Stopped-flow records monitoring the dissociation of 5 μM M200 filaments on jumping [NaCl] from 100 mM to 120 mM NaCl. Other components of the buffer were 20 mM Hepes, 1 mM Mg^2+, and 100 μM Ca^2+ at pH 7.5 and 20 °C. […] In the presence of 20 μM S100A4 (lower trace), the turbidity decreased by 87% with a rate constant of 0.2 s^− 1.
Further information on Scheme 2 was obtained from competition assays. […] An independent estimate of K5 based on the Ca^2+ dependence of the turbidity assay yielded a value of 0.003 μM (see Supplementary Data).
The decrease in fluorescence, […]
that F-M16N binding was slightly faster. […]
(§1) A second estimate was calculated from the apparent Ca2+ binding constant observed in the turbidity assay […]

Experiment [2] addresses T1, S100A4. The experiment in a line: Summary of rate and equilibrium constants defined according to Scheme 1. The class given is binding. The source says:
The interaction of myosin tail fragments (M) with S100A4 depends on [Ca^2+], with little detectable binding in the absence of Ca^2+.[2,7,17] Scheme 1 presents a minimal pathway describing the thermodynamics and kinetics of this interaction, where arrow lengths indicate the approximate position of the equilibria involved.
[formula] Scheme 1 Ca2+ and myosin peptide (M) binding to S100A4.
The binding of Ca^2+ and a target peptide to S100A4, as shown in Scheme 1, is thermodynamically coupled so that K1K2 = K0K3. For simplicity, we assume a 1:1 stoichiometry and independent binding sites, which are unlikely to be true at least for the longer fragments. However, the trends in binding remain valid for more complex cases. Binding of target peptides to S100A4 in the absence of Ca^2+ is weak (K0 > 100 μM), while binding of target peptides to S100A4 in the presence of Ca^2+ (K2) is around a micromolar or less for longer fragments. Knowing that Ca^2+ binding to S100A4 has K1 = 2–5 μM (from the ITC data above and the literature[14,17,18]) requires that Ca^2+ binding to the M–S100A4 complex be very tight (K3 < 0.15 μM and even lower for M200). The latter cannot be easily determined directly as it requires protein concentrations greater than K0 (i.e., >>100 μM) so that the proteins remain bound together throughout the titration with Ca^2+. However, K3 is readily determined by calculation because values or limits for K0, K1, and K2 are available (Table 2). This aspect is addressed further below for M200, which has the complication of forming filaments at the ionic strength used.

For experiment [3], the target named is T1, S100A4. Kind of experiment: Stopped-flow fluorescein fluorescence, kinetics of myosin peptide binding to S100A4. As to conditions: modelled. On the procedure:
(§2) Stopped-flow measurements were carried out using an SX18-MV apparatus (Applied Photophysics Ltd., Leatherhead, UK) with a dead time of 1.5 ms.[40] Records were generally captured on a logarithmic time base. Absorption (turbidity) measurements were usually recorded using a 10-mm pathlength, while fluorescence was recorded with a 2-mm pathlength for excitation and emission. The stated concentrations of components refer to the reaction chamber after mixing, unless otherwise indicated. Tyrosine fluorescence was excited at 280 nm, and the emission was collected through a UG11 bandpass filter plus a 305-nm longpass filter.[18] Fluorescein fluorescence was excited at 480 nm, and the emission was detected through a 515-nm longpass filter. Quin-2 fluorescence was measured by excitation at 336 nm, and emission was collected with a 455-nm longpass filter. For simultaneous recording of light scatter, a second channel was monitored through a UG11 filter. Rate constants were obtained by fitting to single-exponential or double-exponential functions using Kaleidagraph (Synergy Software) or Applied Photophysics Pro-Data software. Modeling of kinetic schemes was performed using Berkeley Madonna software.
The value of K5 (scheme 2) was estimated from two independent experiments. From the competition
as §1
Fig. S2. (a) Displacement of 0.1
monitored by fluorescein emission intensity. […] (b)
Ca2+ was mixed with 1 mM EGTA. […] Note in these
stopped-flow measurements of fluorescein intensity, no polarising optics were present at the magic angle

Experiment [4] addresses T1, S100A4. The experiment in a line: Quin-2 fluorescence, Ca^2+ dissociation from S100A4 in the presence of target peptides. It is filed as binding. The protocol:
Ca^2+ dissociation measurements for wild-type S100A4, using Quin-2 as described above, were repeated as a control for the effect of target peptides on this process. On mixing 10 μM S100A4 in the presence of Ca^2+ with 100 μM Quin-2, the observed profile was fitted to a single exponential with kobs = 17 s^− 1 (Fig. 5a; cf. k− 1 in Scheme 1).
Fig. 5 Dissociation of Ca^2+ from S100A4 in the absence and in the presence of target peptides monitored using Quin-2 fluorescence. (a) Mixed with 100 μM Quin-2 was 10 μM S100A4 + 50 μM Ca^2+ (stopped-flow reaction chamber concentrations). A superposed fit to a single exponential yields kobs = 17 s^− 1. […] (d) As in (a), but with 2.5 μM M200 premixed with 5 μM S100A4. A biphasic exponential fit yielded rate constants of 13 s^− 1 (A = 26%) and 0.30 s^− 1 (A = 74%). […] Experiments were carried out in either 20 mM NaCl, 20 mM Tris, 1 mM DTT, and 100 μM Ca^2+ at pH 7.5 and 20 °C (a and b; cf. Malashkevich et al.[17]), or 100 mM NaCl, 10 mM Hepes, and 100 μM Ca^2+ at pH 7.5 and 20 °C (c and d). […] Rate constants were unaffected by the inclusion of 1 mM Mg^2+.
as §2, with “Rate constants were obtained by fitting to single-exponential or double-exponential functions using Kaleidagraph (Synergy Software) or Applied Photophysics Pro-Data software. Modeling of kinetic schemes was performed using Berkeley Madonna software.” left out

The structures appear in SMILES notation. pKd: −log10 of the molar value. Where two headings read alike, the source gives them in different places.

T1 sequence (P26447 whole entry): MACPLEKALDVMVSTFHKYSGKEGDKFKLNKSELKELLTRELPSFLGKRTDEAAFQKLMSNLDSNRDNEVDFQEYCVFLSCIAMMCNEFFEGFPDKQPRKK

In the case of `CSCC[C@H](NC(=O)[C@H](C)NC(=O)[C@H](CC(=O)O)NC(=O)[C@H](C)NC(C)=O)C(=O)N[C@@H](CC(N)=O)C(=O)N[C@@H](CCCNC(=N)N)C(=O)N[C@@H](CCC(=O)O)C(=O)N[C@H](C(=O)N[C@@H](CO)C(=O)N[C@@H](CO)C(=O)N[C@@H](CC(C)C)C(=O)N[C@@H](CCCCN)C(=O)N[C@@H](CC(N)=O)C(=O)N[C@@H](CCCCN)C(=O)N[C@@H](CC(C)C)C(=O)N[C@@H](CCCNC(=N)N)C(=O)N[C@@H](CCCNC(=N)N)C(=O)NCC(=O)N[C@@H](CC(=O)O)C(=O)N[C@@H](CC(C)C)C(=O)N1CCC[C@H]1C(=O)N[C@@H](Cc1ccccc1)C(=O)N[C@H](C(=O)N[C@H](C(=O)N1CCC[C@H]1C(=O)N[C@@H](CCCNC(=N)N)C(=O)N[C@@H](CCCNC(=N)N)C(=O)N[C@@H](CCSC)C(=O)N[C@@H](C)C(=O)N[C@@H](CCCNC(=N)N)C(=O)N[C@@H](CCCCN)C(=O)NCC(N)=O)C(C)C)C(C)C)C(C)C` [M32], the “inhibition of turbidity change amplitude” value in experiment [1] is 50%. In addition, the pKd is over 6.82 in experiment [2] (Ca^2+ binding to peptide–S100A4, limit from K3 = K1K2/K0, read-out: K3) and under 4.00 in experiment [2] (peptide binding to S100A4 without Ca^2+, read-out: K0). Also, the “k− 3” value in experiment [2] (Ca^2+ dissociation from peptide–S100A4–Ca^2+) amounted to 3.2 s^− 1. Besides, the k2 result in experiment [2] (peptide association to S100A4–Ca^2+) is given as “∼ 2 μM^− 1 s^− 1”. Further, in experiment [2] (peptide dissociation from S100A4–Ca^2+), the “k− 2” value was “∼ 6 s^− 1”. In addition, the “dissociation rate constants, F-M16N vs M32” value in experiment [3] is given as “similar”. Moreover, in experiment [4] (50 μM peptide premixed with 10 μM S100A4, 100 mM NaCl, 10 mM Hepes, 100 μM Ca^2+, pH 7.5, 20 °C), the “kobs, Ca^2+ dissociation with peptide” value is given as 3.3 s^− 1. In addition, the “stoichiometry (discussion)” value in experiment [4] (S100A4 concentration from absorbance at 280 nm) is “one mol of M32 peptide binds to two S100A4 monomers”.
